Entries after “also recorded” stand apart in the source; their conditions may differ.
Target: T1, TNFα trimer / TNFR1 (Homo sapiens, UniProt P01375)
T1 construct: human TNFα residues V77-L233 followed by two additional repeats; human TNFα residues D86-L233 linked together by Ser-Gly-Ser
Assay: Analytical size exclusion chromatography of TNFα/TNFR1/compound complexes, protocol 2
Type: binding
Conditions: compound 200 μM (1:10 trimers:compound); 3.5 fold excess of receptors
Description: Size exclusion chromatography was used to determine the number of TNFR1 receptors bound to TNFα in the absence or presence of different compounds. Compound (2) was tested under the conditions described in protocol 1 below. Compound (5) was tested as described in protocol 2.
Compound (5) was added to 20 μM of TNFα trimer at a final concentration of 200 μM (ratio of 1:10 trimers:compound) with DMSO concentration held constant at 2.0%. The sample of TNFα and compound were incubated overnight at a temperature of 4° C. Receptors at a final concentration of 35 μM were added to 10 μM trimer-compound complex (3.5 fold excess of receptors over the trimer-compound complex). The final concentration of DMSO was 1.0%. The mixture was incubated for 1 hour at 22° C.
The conditions for analytical size exclusion using HPLC were as follows: injection volume: 50 μl; Superdex 200HR 10/300, L×I.D. 30 cm×10 mm column, 13-15 μm particle size; and a buffer of 10 mM HEPES, pH 7.5, 150 mM NaCl.
The TNFα was a single polypeptide chain of trimeric human TNFα composed of human TNFα residues V77-L233 followed by two additional repeats of human TNFα residues D86-L233 linked together by Ser-Gly-Ser (sequences are based on UniProt […]). Human TNFR1 was (V43-N184)(N54D, C182S) based on sequence UniProt P19438. […]

T1 sequence (P01375 with tags, fused parts or gaps): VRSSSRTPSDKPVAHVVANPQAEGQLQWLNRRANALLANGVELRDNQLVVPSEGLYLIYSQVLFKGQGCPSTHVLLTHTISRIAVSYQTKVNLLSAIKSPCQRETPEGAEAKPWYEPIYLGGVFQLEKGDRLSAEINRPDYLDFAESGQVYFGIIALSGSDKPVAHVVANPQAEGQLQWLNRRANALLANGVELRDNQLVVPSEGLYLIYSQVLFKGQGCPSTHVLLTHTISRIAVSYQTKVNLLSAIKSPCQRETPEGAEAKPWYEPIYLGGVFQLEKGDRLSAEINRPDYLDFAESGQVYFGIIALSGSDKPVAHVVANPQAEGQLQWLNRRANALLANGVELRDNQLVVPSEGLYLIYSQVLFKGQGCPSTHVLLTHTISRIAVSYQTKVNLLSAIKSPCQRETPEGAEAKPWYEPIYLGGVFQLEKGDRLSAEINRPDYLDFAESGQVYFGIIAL

Question: With Cc1nc2cc(F)c(-c3cnc(N4CC(O)(C(F)(F)F)C4)nc3)cn2c1[C@@H](O)c1ccccc1OC(F)F (single isomer, unassigned) [compound (5)] as the molecule, how does the “number of receptors binding per trimer (SEC peak position vs mutant TNFα controls)” value read?
Answer: a mixture of two receptors and one receptor; also recorded: moved closer to 1 receptor bound
